US10231960B2, “Methylphenidate-prodrugs, processes of making and using the same” (KemPharm, Inc., priority 2011, dated 2019)
≈ marks a conversion by molar mass, not a printed value.

Assays:
[1] = Water solubility at ambient temperature; type: physicochemical
Experimental: The water solubility of phosphate-CH2OCO-methylphenidate and unconjugated methylphenidate was determined at ambient temperature and the results are found in Table 5.

[2] = Oral PK in rats: plasma methylphenidate released from conjugates vs unconjugated methylphenidate (LC-MS/MS); details: oral gavage; for Tmax: Tmax (Methylphenidate)
Description: Exemplary prodrug conjugates of the present technology were synthesized as described above. The oral plasma concentrations of methylphenidate released from nicotinate-CH2OCO-MPH, phosphate-CH2OCO-MPH, gallate-CH2OCO-MPH, lactate-CH2OCO-MPH, MPH-CO2CH2-nicotinoyl-Asp, MPH-CO2CH2-nicotinoyl-Val, MPH-CO2CH2-nicotinoyl-Gly-Ala, Val-6-aminohexanoate-CH2OCO-MPH, MPH-CO2CH2-nicotinamide, 6-aminohexanoate-CH2OCO-MPH, MPH-CO2CH2-nicotinoyl-O^tBu, MPH-CO2CH2-nicotinate, MPH-CO2CH2-nicotinoyl-OEL MPH-CO2CH2-pyridine, isonicotinate-CH2OCO-MPH and phosphate-(p-salicylate)-CH2OCO-MPH were compared with unconjugated methylphenidate after oral administration in rats. Rats were dosed with oral solutions of the conjugated prodrugs in an amount equivalent to 2 mg/kg of methylphenidate free base and compared to an equimolar solution of unconjugated methylphenidate hydrochloride.
The plasma concentrations of methylphenidate were measured by LC-MS/MS over time.
The dosing vehicles for the PK experiments are as follows: FIG. 13—10% Tween in water. FIGS. 14 and 15—water. FIG. 16—conjugate in 50% PEG-400 in water; control: water. FIG. 17—50% PEG-400 in water. FIG. 18—10% Tween in water. FIGS. 19-27—water. FIGS. 28 and 29—phosphate buffered saline (PBS). FIG. 30—10% Tween in water.

[3] = Intravenous PK in rats: plasma methylphenidate released from conjugates vs unconjugated methylphenidate; type: in vivo; details: rat, unconjugated methylphenidate comparator, dosed intravenously
Description: (§1) FIGS. 14 and 15—water. […] FIG. 17—50% PEG-400 in water. FIG. 18—10% Tween in water. FIGS. 19-27—water. FIGS. 28 and 29—phosphate buffered saline (PBS). FIG. 30—10% Tween in water.

[4] = Intranasal PK in rats: plasma methylphenidate released from conjugates vs unconjugated methylphenidate; type: in vivo; details: rat, inhaled or intranasal, unconjugated methylphenidate comparator, dosed intranasally
Description: as §1

[5] = water, at 32° C.; cited from earlier work
[6] = conjugate relative to methylphenidate hydrochloride from combined data of six studies
[7] = conjugate relative to unconjugated methylphenidate
[8] = calculated from combined data of three studies (footnote a)
[9] = plasma methylphenidate released from conjugate, equivalent to 2 mg/kg methylphenidate free base
[10] = read-out: AUC0-4 h (Methylphenidate)

Row | Structure (SMILES) | AUC-% [2, 7] | Cmax-% [2, 7] | Tmax-% [2, 7] | AUC0-4 h (Conjugate) [2, 9] | Cmax (Conjugate) [2, 9] | Tmax (Conjugate) [2, 9] | also measured
1 | COC(=O)C(c1ccccc1)C1CCCCN1C(=O)OCOP(=O)(O)O (centres unmarked) [Phosphate-CH2OCO-MPH, phosphate-CH2OCO-MPH] | 185% | 144% | 100% | 110.8 ng·h/mL | 110.8 ng/mL | 15 min | Solubility in Water [1]: 432 mg/mL; Water solubility relative to the unconjugated form ([1]; vs unconjugated methylphenidate hydrochloride): about 2.5 times; AUC-% [2, 6]: 146%; Cmax-% [2, 6]: 140%; Tmax-% [2, 6]: 88%; AUC0-4 h (Conjugate) [2, 8]: 154.5 ng·h/mL; Cmax (Conjugate) [2, 8]: 158.9 ng/mL; Tmax (Conjugate) [2, 8]: 15 min
2 | COC(=O)C(c1ccccc1)C1CCCCN1 (centres unmarked) [Methylphenidate, methyl phenyl(piperidin-2-yl)acetate] |  |  |  |  |  |  | Cmax [3]: 296 ng/mL; Tmax [3]: 31 min; AUC(0-t) [3, 10]: 320 ng·h/mL; solubility ([1]; water): 169 mg/mL (≈ 724 mM); Cmax [4]: 2210 ng/mL; Tmax [4]: 6.96 min; AUC(0-t) [4, 10]: 1050 ng·h/mL; AUC(0-t) ([2]; rat, plasma, po, 2 mg/kg, AUC0-4 h (Methylphenidate), methylphenidate hydrochloride, combined data of six studies (footnotes a, b)): 106 ng·h/mL; Cmax ([2]; rat, plasma, po, 2 mg/kg, Cmax (Methylphenidate), methylphenidate hydrochloride, combined data of six studies (footnotes a, b)): 114 ng/mL; Tmax ([2]; rat, plasma, po, 2 mg/kg, methylphenidate hydrochloride, combined data of six studies (footnotes a, b)): 17 min; Tmax ([2]; rat, plasma, po, 2 mg/kg, unconjugated methylphenidate hydrochloride comparator of the same row, equimolar): 15 min; Solubility data found in the literature [5]: 191 mg/mL (≈ 819 mM)
3 | COC(=O)C(c1ccccc1)C1CCCCN1C(=O)OCOC(=O)C(C)O (centres unmarked) [Lactate-CH2OCO-MPH, lactate-CH2OCO-MPH] | 73% | 75% | 120% | 132.3 ng·h/mL | 122.5 ng/mL | 18 min | 
4 | COC(=O)C(c1ccccc1)C1CCCCN1C(=O)OCOC(=O)CCCCCN (centres unmarked) [6-Aminohexanoate-CH2OCO-MPH, (6-aminohexanoyloxy)methyl methylphenidate-1-carboxylate] | 82% | 109% | 88% | 145.6 ng·h/mL | 173.5 ng/mL | 21 min | 
5 | COC(=O)C(c1ccccc1)C1CCCCN1C(=O)OCOC(=O)CCCCCNC(=O)C(N)C(C)C (centres unmarked) [Val-6-aminohexanoate-CH2OCO-MPH] | 58% | 59% | 83% | 44.9 ng·h/mL | 52.7 ng/mL | 15 min | 
